# Assay results as given in US20200171162A1, “E-POLY-L-LYSINE DERIVATIVES HAVING FUNCTIONAL GROUP FOR CLICK CHEMISTRY, METHOD FOR PRODUCING THE SAME, AND USE THEREOF” (Fukui Prefectural University, priority 2017, published 2020).
# Legend:
# [1] = test system: HeLa cells; assay: Biomembrane permeability test using HeLa cells (fluorescence intensity of cell extract); type: cell-based; settings: statement for the unmodified dye
# Experimental: The culture of HeLa cells was performed in a Dulbecco's modified Eagle's medium (DMEM) containing 10% fetal bovine serum (FBS) in an atmosphere of 5% carbon dioxide at 37° C. Under such culture conditions, the cells were cultured in 12-well plates until grown to 70 to 80% confluency. The cells were washed twice with DMEM without FBS (DMEM w/o FBS). […] Incubation was performed at 4° C. for 30 minutes. The cells were washed successively with phosphate buffered saline (PBS) twice, with PBS alone or PBS containing heparin (100 μg/mL), and with PBS twice. To the cells, 300 μL of 100 mM Tris-HCl buffer solution (pH 8.0) containing 1% Triton X-100 was added for extraction of the compound taken up by the cells. After removing the insoluble fraction by centrifugation, fluorescence intensity was measured.
# The culture of HeLa cells was performed in a Dulbecco's modified Eagle's medium (DMEM) containing 10% fetal bovine serum (FBS) in an atmosphere of 5% carbon dioxide at 370° C. Under such culture conditions, the cells were cultured in 12-well plates until grown to 70 to 80% confluency. The cells were washed twice with DMEM without FBS (DMEM w/o FBS). […] Incubation was performed at 4° C. for 30 minutes. […] After removing the insoluble fraction by centrifugation, fluorescence intensity was measured.
# [2] = physchem
# Experimental: A commercial DBCO-PEG4-5/6-FAM represented by formula (12) (0.5 μmol) and a 9- to 18-mer ε-PL-PEG-azide represented by the general formula (10) (wherein n is an integer of 9 to 18) (1.0 μmol) were dissolved in 80% dimethylsulfoxide (hereinafter referred to as DMSO). The mixture was subjected to a click chemistry reaction while stirred at 30° C. for 24 hours. The reaction mixture was analyzed by ESI-TOF-MS/HPLC as described in Example 1.
# [3] = test system: Dox-resistant K562 cells (K562/ADR); assay: Cytotoxicity (anticancer activity), MTT assay; type: cell-based; settings: Homo sapiens, 48 hours
# Experimental: (§1) The culture of K562 cells and K562/ADR cells was performed in an RPMI1640 medium containing 10% fetal bovine serum (FBS) in an atmosphere of 5% carbon dioxide at 37° C. The cells were suspended at 1×10^5 cells/mL in the medium, and 100 μL (1×10^4 cells) of the cell suspension was seeded on each well of 96-well plates and cultured for 24 hours. […] MTT assay was performed to determine cytotoxicity based on viable cell count.
# [4] = test system: human chronic myelogenous leukemia K562 cells; assay: Cytotoxicity (anticancer activity), MTT assay; type: cell-based; settings: 48 hours
# Experimental: as §1
compound,measurement,setting,value
O=C(CCOCCOCCOCCOCCNC(=O)c1ccc(-c2c3ccc(=O)cc-3oc3cc(O)ccc23)c(C(=O)O)c1)NCCC(=O)N1Cc2ccccc2C#Cc2ccccc21 [DBCO-PEG4-5/6-FAM],biomembrane permeability,[1],no biomembrane permeability
same,water solubility,[2],poorly water-soluble
"COc1cccc2c1C(=O)c1c(O)c3c(c(O)c1C2=O)C[C@@](O)(C(=O)CO)C[C@@H]3O[C@H]1C[C@H](N)[C@H](O)[C@H](C)O1 [Dox, doxorubicin]",IC50,[3],1040 nM
same,IC50,[4],239 ± 72 nM
"C[C@@H]1[C@H](O)[C@@H](C)/C=C/C=C/C=C/C=C/C=C/C=C/C=C/[C@H](O[C@@H]2O[C@H](C)[C@@H](O)[C@H](N)[C@@H]2O)C[C@@H]2O[C@](O)(C[C@@H](O)C[C@@H](O)[C@H](O)CC[C@@H](O)C[C@@H](O)CC(=O)O[C@H]1C)C[C@H](O)[C@H]2C(=O)O [AmpB, amphotericin B]",solubility,[2]; water,< 1080 µM
